How the values were obtained:
[1] = rodents; cited from earlier work
[2] = system: N and P/Q subtypes of Ca^2+ channel; settings: cited from earlier work
GABAB receptors = GABAB receptors (Homo sapiens, UniProt Q9UBS5); settings: cited from earlier work
[3] = rabbits; cited from earlier work
GABAA receptors = settings: cited from earlier work
[4] = system: system L-amino acid transporter; settings: cited from earlier work
[5] = system: formalin-induced nociceptive responses; settings: formalin test, cited from earlier work
NMDA receptors = biological target: T1, NMDA receptors (Rattus norvegicus, UniProt P35439); test: NMDA-evoked currents in isolated dorsal horn neurons of control rats, whole-cell patch clamp, with or without PKCM in the pipette; type: cell-based
T1 construct: Single dorsal horn neurons were isolated from the lamina I and II of the lumbar spinal cord; endogenous in cells; host or cells: acutely dissociated rat lumbar dorsal horn neurons (lamina I/II): control Long-Evans rats or CFA-inflamed Sprague-Dawley rats
Method: Single dorsal horn neurons were isolated from the lamina I and II of the lumbar spinal cord of 13-20 days old Long-Evans rats. After the rat had been anaesthetized with pentobarbitone (0.1 mg/g), the lumbar region of the spinal cord was rapidly removed from the animal and put into an ice-cold, oxygenated dissecting solution. […] Prior to an experiment, neurons from a slice were dissociated by triturating the tissue with a series of fire-polished Pasteur pipettes.
Electrical recordings: NMDA-receptor mediated currents in normal dorsal horn neurons were examined using the whole-cell patch clamp recording technique at room temperature (20-23° C.). The pipette solution contained (in mM): 120 cesium methanesulphonate, 20 CsCl, 1 CaCl2, 5 BAPTA, 1 MgCl2, 10 HEPES, 2.5 Na2ATP, adjusted to pH 7.2 with CsOH. The external solution contained (mM): NaCl,140; KCl, 4; CaCI2, 2.5; MgCl2, 0.02; HEPES,10; Glucose,10; Sucrose,10; adjusted to pH 7.4 with KOH. […] The resistances of patch pipettes were <20 Mohms. Current recordings were made with an Axopatch-200A patch clamp amplifier (Axon Instruments, Foster City, Calif.). The recorded whole-cell currents were filtered at 2 kHz and sampled at 200 μs per point. The average data are expressed as mean±SEM. Statistical significance of the data was evaluated using Student's t-test or one-way ANOVA. A level of P<0.05 was considered statistically significant.

Sequence of GABAB receptors (Q9UBS5 15-961 limits assumed): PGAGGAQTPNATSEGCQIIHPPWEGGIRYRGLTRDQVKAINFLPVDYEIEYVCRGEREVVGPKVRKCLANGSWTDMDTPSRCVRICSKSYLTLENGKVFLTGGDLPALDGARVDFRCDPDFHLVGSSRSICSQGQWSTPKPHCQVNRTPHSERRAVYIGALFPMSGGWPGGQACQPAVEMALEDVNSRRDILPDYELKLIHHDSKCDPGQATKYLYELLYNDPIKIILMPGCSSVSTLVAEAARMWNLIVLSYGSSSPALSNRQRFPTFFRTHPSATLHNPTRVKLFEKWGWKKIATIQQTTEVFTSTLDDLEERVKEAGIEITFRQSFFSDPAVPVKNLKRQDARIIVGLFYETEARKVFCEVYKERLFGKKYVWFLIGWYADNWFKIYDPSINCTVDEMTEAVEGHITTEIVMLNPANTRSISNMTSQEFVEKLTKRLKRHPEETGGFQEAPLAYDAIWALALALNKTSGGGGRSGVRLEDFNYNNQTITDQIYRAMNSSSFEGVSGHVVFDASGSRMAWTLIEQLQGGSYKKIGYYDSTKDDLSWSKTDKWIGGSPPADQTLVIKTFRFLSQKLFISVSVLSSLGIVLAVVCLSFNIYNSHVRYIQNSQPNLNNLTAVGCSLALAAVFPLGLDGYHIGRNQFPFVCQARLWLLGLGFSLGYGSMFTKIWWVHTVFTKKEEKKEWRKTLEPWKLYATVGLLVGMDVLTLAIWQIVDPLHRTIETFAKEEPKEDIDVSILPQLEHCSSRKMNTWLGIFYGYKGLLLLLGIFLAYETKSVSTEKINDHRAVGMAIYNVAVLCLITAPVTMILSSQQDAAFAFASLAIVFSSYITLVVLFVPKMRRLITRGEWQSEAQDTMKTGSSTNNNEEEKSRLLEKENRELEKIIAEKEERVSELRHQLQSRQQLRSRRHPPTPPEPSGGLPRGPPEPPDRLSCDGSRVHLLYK
Sequence of GABAB receptors (O75899 42-941 partner): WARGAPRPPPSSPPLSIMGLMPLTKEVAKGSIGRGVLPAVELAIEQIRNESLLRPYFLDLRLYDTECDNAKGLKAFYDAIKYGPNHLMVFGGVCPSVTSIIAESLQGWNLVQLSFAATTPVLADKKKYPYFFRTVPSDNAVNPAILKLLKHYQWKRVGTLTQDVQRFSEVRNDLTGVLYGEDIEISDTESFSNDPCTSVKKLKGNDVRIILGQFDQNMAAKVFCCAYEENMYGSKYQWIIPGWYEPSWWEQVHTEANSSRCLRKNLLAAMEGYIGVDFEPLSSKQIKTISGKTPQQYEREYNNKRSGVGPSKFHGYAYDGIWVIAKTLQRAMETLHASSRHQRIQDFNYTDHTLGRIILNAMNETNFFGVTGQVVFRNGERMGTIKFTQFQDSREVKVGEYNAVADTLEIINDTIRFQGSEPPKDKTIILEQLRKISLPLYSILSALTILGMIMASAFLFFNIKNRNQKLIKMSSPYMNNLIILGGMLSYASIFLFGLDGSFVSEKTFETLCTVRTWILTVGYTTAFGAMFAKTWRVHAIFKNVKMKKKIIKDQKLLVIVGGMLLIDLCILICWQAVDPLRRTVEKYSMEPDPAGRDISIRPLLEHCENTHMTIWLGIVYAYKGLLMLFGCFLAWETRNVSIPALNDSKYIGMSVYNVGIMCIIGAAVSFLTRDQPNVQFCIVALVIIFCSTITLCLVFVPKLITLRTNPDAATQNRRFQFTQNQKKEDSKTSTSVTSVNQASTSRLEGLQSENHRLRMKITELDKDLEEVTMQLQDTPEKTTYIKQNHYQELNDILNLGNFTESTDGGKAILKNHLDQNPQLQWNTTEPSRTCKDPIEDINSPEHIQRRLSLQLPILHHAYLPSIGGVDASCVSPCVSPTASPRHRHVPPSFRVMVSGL

SMILES: NCC1(CC(=O)O)CCCCC1 [GBP, 1-(aminomethyl)cyclohexaneacetic acid]
- fetotoxicity [1]: fetotoxic
- inhibition of Ca^2+ channel activity [2]: < 20%
- interaction with GABAB receptors (GABAB receptors): does not interact
- fetal loss [3]: postimplantation fetal loss
- interaction with GABAA receptors (GABAA receptors): does not interact
- interaction with system L-amino acid transporter [4]: interact
- nociceptive behaviors in the transient phase ([5]; first phase): no effect
- sustained phase of formalin-induced nociceptive responses ([5]; second phase): potently blocking

SMILES: NC(CCCP(=O)(O)O)C(=O)O (stereo not shown) [APV, 2-amino-5-phosphonovaleric acid]
- block of NMDA-evoked inward current (NMDA receptors; 20 μM APV, control dorsal horn neuron): blocked

SMILES: COc1ccc2c(c[n+](C)c3c4cc5c(cc4ccc23)OCO5)c1OC [chelerythrine]
- block of the action of PKCM on NMDA-activated currents (NMDA receptors; 6.6 μM chelerythrine in external solution): completely blocked

From US20020049160A1, “New strategy for drug design” (priority 2000, published 2002)
